Laboratory results from ChEMBL document CHEMBL3751745, “Aryl-imidazothiadiazole analogues as microtubule disrupting agents” (Medchemcomm, 2015).
pIC50: −log10 of the molar value. Calls of active or inactive are those of the source. No cut-off for these calls is given here.

Experiments:
MCF7 = assay: Cytotoxicity against human MCF7 cells assessed as cell viability after 48 hrs by SRB assay; format: functional, cell-based; conditions: MCF7, 48 h
[1] = Cytotoxicity against human DU145 cells assessed as cell viability after 48 hrs by SRB assay; format: functional, cell-based; conditions: DU-145, 48 h
HeLa [2] = assay: Cytotoxicity against human HeLa cells assessed as cell viability after 48 hrs by SRB assay; format: functional, cell-based
[3] = Cytotoxicity against human MIAPaCa2 cells assessed as cell viability after 48 hrs by SRB assay; format: functional, cell-based; conditions: MIA PaCa-2, 48 h
Tubulin (Sus scrofa) = Tubulin (Sus scrofa) (UniProt P02554+P02550); assay: Inhibition of porcine brain tubulin polymerization at 5 uM by fluorescence based assay
Sequence of Tubulin (Sus scrofa) (P02550 whole entry, looked up): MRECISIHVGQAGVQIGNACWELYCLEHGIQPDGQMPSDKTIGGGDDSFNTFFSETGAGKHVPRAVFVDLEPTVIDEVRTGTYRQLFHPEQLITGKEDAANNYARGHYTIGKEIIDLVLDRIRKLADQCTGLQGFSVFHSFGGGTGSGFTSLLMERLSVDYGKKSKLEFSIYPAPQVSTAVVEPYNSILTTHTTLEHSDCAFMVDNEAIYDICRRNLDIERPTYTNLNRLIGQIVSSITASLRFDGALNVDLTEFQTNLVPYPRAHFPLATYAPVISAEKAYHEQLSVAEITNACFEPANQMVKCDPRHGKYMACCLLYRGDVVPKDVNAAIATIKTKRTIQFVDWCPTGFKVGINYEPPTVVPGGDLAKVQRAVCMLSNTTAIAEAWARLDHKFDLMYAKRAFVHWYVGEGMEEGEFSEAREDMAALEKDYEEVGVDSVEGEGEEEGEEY
Sequence of Tubulin (Sus scrofa) (P02554 whole entry, looked up): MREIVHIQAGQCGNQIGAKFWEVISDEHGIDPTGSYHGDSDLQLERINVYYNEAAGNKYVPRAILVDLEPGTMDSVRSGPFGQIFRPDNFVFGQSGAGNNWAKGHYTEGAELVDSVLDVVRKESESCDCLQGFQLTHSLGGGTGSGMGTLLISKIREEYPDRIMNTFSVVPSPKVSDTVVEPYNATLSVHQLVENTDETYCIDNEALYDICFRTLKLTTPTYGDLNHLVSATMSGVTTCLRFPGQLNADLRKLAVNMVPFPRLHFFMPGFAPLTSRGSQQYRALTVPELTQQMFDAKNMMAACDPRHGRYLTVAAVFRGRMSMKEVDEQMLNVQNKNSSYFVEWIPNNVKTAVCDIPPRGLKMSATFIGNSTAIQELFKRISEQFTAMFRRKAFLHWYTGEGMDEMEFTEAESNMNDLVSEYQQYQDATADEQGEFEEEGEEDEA

HeLa [4] = assay: Induction of apoptosis in human HeLa cells assessed as activation of cyclin B1 mRNA levels at 5 uM after 24 hrs by semi-quantitative RT-PCR; format: functional, cell-based
HeLa [5] = assay: Induction of apoptosis in human HeLa cells assessed as activation of caspase-3 activity at 4 uM after 24 hrs by ELISA; format: functional
HeLa [6] = assay: Induction of apoptosis in human HeLa cells assessed as activation of caspase-3 activity at 2 uM after 24 hrs by ELISA; format: functional
HeLa [7] = assay: Induction of cell cycle arrest in human HeLa cells assessed as cell arrest at accumulation at G2/M phase at 2 uM after 24 hrs by flow cytometric analysis (reference value: 25.49%); format: functional
Tubulin = Tubulin (Sus scrofa, UniProt P02554+P02550); assay: Inhibition of porcine brain tubulin polymerization by fluorescence based assay
HeLa [8] = assay: Disruption of microtubule organization in human HeLa cells at 5 uM after 24 hrs by DAPI-FITC staining based confocal microscopic analysis; format: functional, cell-based
HeLa [9] = assay: Induction of apoptosis in human HeLa cells assessed as induction of cyclin B1 levels at 5 uM after 24 hrs by Western blot analysis; format: functional, cell-based
HeLa [10] = assay: Induction of cell cycle arrest in human HeLa cells assessed as cell arrest at accumulation at G2/M phase at 5 uM after 24 hrs by flow cytometric analysis (reference value: 25.49%); format: functional
Tubulin (Homo sapiens) = Tubulin (Homo sapiens) (UniProt P68371+Q9H4B7+P0DPH7+P68366+Q13509+Q71U36+P04350+Q3ZCM7+P07437+P68363+Q9BQE3+Q6PEY2+Q13885+Q9BVA1+Q9BUF5); assay: Inhibition of colchicine binding to tubulin (unknown origin) assessed as decrease in tubulin-colchicine complex at 0 to 15 uM incubated for 1 hr by fluorescence based colchicine competitive binding assay; format: protein-complex assay

| SMILES | pIC50 (MCF7) | pIC50 [1] | pIC50 (HeLa [2]) | pIC50 [3] | other results |
| --- | --- | --- | --- | --- | --- |
| COc1cc(-c2nc3sc(C4CC4)nn3c2-c2ccc(OC(F)(F)F)cc2)cc(OC)c1OC | 4.77 | 4.89 | 4.95 | 4.74 | – |
| COC(=O)Nc1nc2cc(C(=O)c3cccs3)ccc2[nH]1 | – | – | – | – | inhibition (Tubulin (Sus scrofa)): 79.2% |
| CCc1nn2c(-c3ccccc3)c(-c3cc(OC)c(OC)c(OC)c3)nc2s1 | 4.94 | 4.84 | 4.97 | 4.87 | – |
| COc1cc(-c2nc3sc(C4CC4)nn3c2-c2ccc(F)cc2)cc(OC)c1OC | 4.71 | 4.82 | 4.81 | 4.56 | – |
| CCc1nn2c(-c3ccc(N(C)C)cc3)c(-c3cc(OC)c(OC)c(OC)c3)nc2s1 | 5.72 | 5.56 | 5.66 | 5.60 | Activity (HeLa [4]): Active; fold change (FC) (HeLa [5]): 2.5; fold change (FC) (HeLa [6]): 2.5; Activity (HeLa [7]): 55.3%; IC50 (Tubulin): 3.1 µM; Activity (HeLa [8]): Active; Activity (HeLa [9]): Active; Activity (HeLa [10]): 67.53%; inhibition (Tubulin (Sus scrofa)): 66.8% |
| COc1cc(-c2nc3sc(C4CC4)nn3c2-c2ccccc2)cc(OC)c1OC | 4.37 | 4.59 | 4.45 | 4.50 | – |
| COc1cc(-c2nc3sc(C4CC4)nn3c2-c2ccc(C)cc2)cc(OC)c1OC | 4.58 | 4.73 | 4.69 | 4.53 | – |
| CCc1nn2c(-c3ccc(F)cc3)c(-c3cc(OC)c(OC)c(OC)c3)nc2s1 | 5.01 | 4.78 | 4.95 | 4.98 | – |
| COc1cc(-c2nc3sc(C4CC4)nn3c2-c2ccc(N(C)C)cc2)cc(OC)c1OC | 5.47 | 5.46 | 5.54 | 5.60 | Activity (HeLa [4]): Active; fold change (FC) (HeLa [5]): 2.5; fold change (FC) (HeLa [6]): 2.5; Activity (HeLa [7]): 57.66%; IC50 (Tubulin): 3.8 µM; Activity (HeLa [8]): Active; Activity (HeLa [9]): Active; Activity (HeLa [10]): 72.5%; inhibition (Tubulin (Sus scrofa)): 60.9% |
| COc1ccc(/C=C\c2cc(OC)c(OC)c(OC)c2)cc1O [COMBRETASTATIN A4] | 6.87 | 6.92 | 6.82 | 7.06 | Activity (HeLa [4]): Active; fold change (FC) (HeLa [5]): 2.5; fold change (FC) (HeLa [6]): 2.5; Activity (HeLa [8]): Active; Activity (HeLa [9]): Active; Activity (HeLa [10]): 83.95% |
| CCc1nn2c(-c3ccc(Cl)cc3)c(-c3cc(OC)c(OC)c(OC)c3)nc2s1 | 4.91 | 4.72 | 4.86 | 4.81 | – |
| CCc1nn2c(-c3ccc(OC)c(OC)c3)c(-c3cc(OC)c(OC)c(OC)c3)nc2s1 | 4.94 | 4.88 | 4.84 | 4.84 | – |
| COc1ccc(-c2c(-c3cc(OC)c(OC)c(OC)c3)nc3sc(C4CC4)nn23)cc1 | 4.94 | 4.98 | 4.84 | 4.77 | – |
| CCc1ccc(-c2c(-c3cc(OC)c(OC)c(OC)c3)nc3sc(C4CC4)nn23)cc1 | 4.53 | 4.87 | 4.44 | 4.40 | – |
| CCc1nn2c(-c3ccc(OC)cc3)c(-c3cc(OC)c(OC)c(OC)c3)nc2s1 | 4.60 | 4.60 | 4.67 | 4.52 | – |
| COc1cc(-c2nc3sc(C4CC4)nn3c2-c2ccc(Cl)cc2)cc(OC)c1OC | 4.64 | 4.94 | 4.72 | 4.76 | – |
| CCc1nn2c(-c3cc(F)cc(F)c3)c(-c3cc(OC)c(OC)c(OC)c3)nc2s1 | 4.44 | 4.66 | 4.58 | 4.51 | – |
| COc1cc(-c2nc3sc(C4CC4)nn3c2-c2ccc3c(c2)OCO3)cc(OC)c1OC | 4.59 | 4.89 | 4.77 | 4.71 | – |

| SMILES | pIC50 (MCF7) | pIC50 [1] | pIC50 (HeLa [2]) | pIC50 [3] | other results |
| --- | --- | --- | --- | --- | --- |
| COc1cc(-c2nc3sc(C4CC4)nn3c2-c2cc(OC)c(OC)c(OC)c2)cc(OC)c1OC | 4.44 | 4.28 | 4.86 | 4.40 | – |
| CCc1nn2c(-c3ccc(C)cc3)c(-c3cc(OC)c(OC)c(OC)c3)nc2s1 | 4.78 | 4.66 | 4.83 | 4.69 | – |
| COc1cc(-c2nc3sc(C4CC4)nn3c2-c2cc(F)cc(F)c2)cc(OC)c1OC | 4.63 | 4.77 | 4.76 | 4.53 | – |
| COc1cc(-c2nc3sc(C4CC4)nn3c2-c2ccc(C(F)(F)F)cc2)cc(OC)c1OC | 4.74 | 4.82 | 4.36 | 4.63 | – |
| CCc1nn2c(-c3ccc(OC(F)(F)F)cc3)c(-c3cc(OC)c(OC)c(OC)c3)nc2s1 | 4.83 | 4.63 | 4.87 | 4.79 | – |
| CCc1nn2c(-c3ccc(F)c(Cl)c3)c(-c3cc(OC)c(OC)c(OC)c3)nc2s1 | 4.84 | 4.94 | 4.86 | 4.76 | – |
| CCc1nn2c(-c3ccc(F)cc3OC)c(-c3cc(OC)c(OC)c(OC)c3)nc2s1 | 4.52 | 4.45 | 4.55 | 4.54 | – |
| CCc1nn2c(-c3cc(OC)c(OC)c(OC)c3)c(-c3cc(OC)c(OC)c(OC)c3)nc2s1 | 4.69 | 4.87 | 4.76 | 4.71 | – |
| COc1cc(-c2nc3sc(C4CC4)nn3c2-c2ccc3ccccc3c2)cc(OC)c1OC | 4.82 | 4.35 | 4.71 | 4.67 | – |
| CC(=O)O[C@H]1C(=O)[C@@]2(C)[C@H]([C@H](OC(=O)c3ccccc3)[C@]3(O)C[C@H](OC(=O)[C@H](O)[C@@H](NC(=O)c4ccccc4)c4ccccc4)C(C)=C1C3(C)C)[C@]1(OC(C)=O)CO[C@@H]1C[C@@H]2O | – | – | – | – | inhibition (Tubulin (Homo sapiens)): inactive; Activity (HeLa [4]): Active; Activity (HeLa [9]): Active |
| CCc1nn2c(-c3ccc4ccccc4c3)c(-c3cc(OC)c(OC)c(OC)c3)nc2s1 | 5.62 | 5.35 | 5.80 | 5.92 | inhibition (Tubulin (Homo sapiens)): Dose-dependent effect; Activity (HeLa [4]): Active; fold change (FC) (HeLa [5]): 2.5; fold change (FC) (HeLa [6]): 2.5; Activity (HeLa [7]): 64.84%; IC50 (Tubulin): 1.7 µM; Activity (HeLa [8]): Active; Activity (HeLa [9]): Active; Activity (HeLa [10]): 78.3%; inhibition (Tubulin (Sus scrofa)): 75.1% |
| CCc1nn2c(-c3ccc(C(F)(F)F)cc3)c(-c3cc(OC)c(OC)c(OC)c3)nc2s1 | 4.93 | 4.74 | 4.98 | 4.83 | – |
| CCc1ccc(-c2c(-c3cc(OC)c(OC)c(OC)c3)nc3sc(CC)nn23)cc1 | 4.90 | 4.61 | 4.91 | 4.84 | – |
| COc1ccc(-c2c(-c3cc(OC)c(OC)c(OC)c3)nc3sc(C4CC4)nn23)cc1OC | 4.89 | 4.78 | 4.81 | 4.71 | – |
| CCc1nn2c(-c3ccc4c(c3)OCO4)c(-c3cc(OC)c(OC)c(OC)c3)nc2s1 | 4.94 | 4.73 | 5.06 | 4.88 | – |
| COc1cc(F)ccc1-c1c(-c2cc(OC)c(OC)c(OC)c2)nc2sc(C3CC3)nn12 | 4.46 | 4.65 | 4.59 | 4.39 | – |
| COc1cc(-c2nc3sc(C4CC4)nn3c2-c2ccc(F)c(Cl)c2)cc(OC)c1OC | 4.73 | 4.86 | 4.81 | 4.68 | – |
